{
  "source": "patent US9414591B2",
  "about": "“Chitooligosaccharides and methods for use in enhancing corn growth” (NOVOZYMES BIOAG A/S, priority 2011, dated 2016)",
  "format_in_all_cases": "in vivo",
  "key": {"corn foliage": {"system": "corn foliage", "experiment": "Field trials, grain yield when applied to corn foliage (Example 4)"}, "corn seed": {"system": "corn seed", "experiment": "Field trials, grain yield when applied to corn seed before planting (Example 5)"}, "[1]": {"system": "Hybrid corn seeds (92L90)", "experiment": "Greenhouse corn seed treatment, plant dry weight (Example 1)", "settings": "seed treatment solution 10^-8 M", "procedure": "Two seed treatment experiments using only Pea LCO, Pea CO and the CO mixtures obtained from chitosan by enzymatic process (structurally distinct from the Pea CO, and also referred to in the examples as the “China CO”) were performed in greenhouse. Hybrid corn seeds (92L90, Peterson Farm, USA) were treated with treatment solution (10^-8 M) at the rate of 3 fl oz/100 lbs of seed. Seeds were planted in plastic pots containing 1:1 Sand:Perlite mixture. Seeds were allowed to grow for about 3-4 weeks and then they were harvested and their dry weight measured."}, "Corn seeds [2]": {"system": "Corn seeds", "experiment": "Greenhouse corn seed application, seedling dry weight (Example 3)", "settings": "alone at 10^−8 M; harvested 10 days after planting (FIG. 9)", "procedure": "Corn seeds were treated with various combinations of Pea CO (10^-8 M) and Pea LCO (10-8, 10^-9 M). Seeds were planted in greenhouse plastic pots containing 1:1 sand:perlite mixture. Seedlings were harvested 10 days after planting, washed clean and then dried in an oven at 60 C for 48 hr."}, "Corn seeds [3]": {"system": "Corn seeds", "experiment": "Corn seed germination in petriplates (Example 2)", "settings": "5 days after plating", "procedure": "Corn seeds were plated in petriplates containing 5 ml of treatment solution on a filter paper. Corn seeds were placed on moist filter paper for germination. Similarly, wheat seeds (spring wheat) were placed in petriplates. […] Roots were harvested and their length measured by WinRhizo system."}, "[4]": {"settings": "seed treatment, CO compared to LCO, less"}},
  "data": [
    {"smiles": "CC(=O)NC1C(O)OC(CO)C(OC2OC(CO)C(OC3OC(CO)C(OC4OC(CO)C(OC5OC(CO)C(O)C(O)C5N)C(O)C4NC(C)=O)C(O)C3NC(C)=O)C(O)C2NC(C)=O)C1O", "note": "(stereo not shown) [CO (CO-V)]", "values": [
      {"measurement": "yield enhancement as a foliar treatment", "setting": "corn foliage", "value": "performed at least twice better than the LCO"},
      {"measurement": "CO mean yield better than foliar LCO response", "setting": "corn foliage; CO compared to LCO", "value": 5.0, "unit": "bu/A"},
      {"measurement": "YIELD, Response Increase (% of Control)", "setting": "corn foliage; foliar", "value": "4.8 % of Control"},
      {"measurement": "YIELD, Mean (N = 16)", "setting": "corn foliage; foliar, 4 ounces per acre with glyphosate herbicide, 16 field trials", "value": 201.8, "unit": "bu/A"},
      {"measurement": "higher yield increase than LCO", "setting": "corn foliage; foliar, CO compared to LCO", "value": 2.6, "unit": "%"},
      {"measurement": "trials with a positive response, better than LCO", "setting": "corn foliage; foliar, CO compared to LCO", "value": 18.8, "unit": "%"},
      {"measurement": "Positive Yield Response (%)", "setting": "corn foliage; foliar, share of the 16 trials with positive yield enhancement", "value": 93.8, "unit": "%"},
      {"measurement": "YIELD, Response (bu/A)", "setting": "corn foliage; foliar, versus Control (water)", "value": 9.2, "unit": "bu/A"},
      {"measurement": "YIELD, Response Increase (% of Control)", "setting": "corn seed; seed treatment", "value": "3.6 % of Control"},
      {"measurement": "yield enhancement when applied to corn seed", "setting": "corn seed; seed treatment", "value": "provided yield enhancement above the Control"},
      {"measurement": "YIELD, Mean (N = 10)", "setting": "corn seed; seed treatment 1×10-8 molar, 1 μg/acre, 3 fluid ounces per 50 pounds of seed, 10 field trials", "value": 188.0, "unit": "bu/A"},
      {"measurement": "CO mean yield less than LCO", "setting": "corn seed; [4]", "value": 4.6, "unit": "bu/A"},
      {"measurement": "less positive yield responses than LCO", "setting": "corn seed; [4]", "value": 10.0, "unit": "%"},
      {"measurement": "less yield increase above the Control than LCO", "setting": "corn seed; [4]", "value": 2.5, "unit": "%"},
      {"measurement": "Positive Yield Response (%)", "setting": "corn seed; seed treatment, share of the 10 trials with positive yield enhancement", "value": 80.0, "unit": "%"},
      {"measurement": "YIELD, Response (bu/A)", "setting": "corn seed; seed treatment, versus Control (water)", "value": 6.5, "unit": "bu/A"},
      {"measurement": "shoot, root and total biomass / plant dry weight compared to LCO", "setting": "[1]; both experiments", "value": "greater shoot, root and total biomass increase over non-inventive and comparable LCO"},
      {"measurement": "dry weight increase over LCO", "setting": "[1]; first trial (FIG. 5), 3 fl oz/100 lbs of seed, harvested after about 3-4 weeks", "value": 11.84, "unit": "%"},
      {"measurement": "dry weight-increase over LCO", "setting": "[1]; second trial (FIG. 6), 3 fl oz/100 lbs of seed, harvested after about 3-4 weeks", "value": 12.63, "unit": "%"},
      {"measurement": "corn seedling dry weight", "setting": "Corn seeds [2]", "value": "increased corn seedling dry weight"},
      {"measurement": "seed germination", "setting": "Corn seeds [3]; 5 ml treatment solution on filter paper, vs control (FIG. 7)", "value": "increased germination"},
      {"measurement": "seedling root length", "setting": "Corn seeds [3]; WinRhizo system, vs control", "value": "significantly increased seedling root length over control"}
    ]}
  ]
}
